Data as given in patent publication US20060014740A1 (priority 2003, published 2006).
Where a name gives a salt, the structure may show the parent alone. Read-outs that look alike come from different tables or passages of the source.

Key:
[1] = test system: RH7777 rat hepatoma cells; assay: SRB cytotoxicity assay, RH7777 control cell line; type: cell-based; details: control cell line, 96 h, read-out: IC50 RH7777
Experimental: (§1) For in vitro cytotoxicity screening, 1000 to 5000 cells were plated into each well of 96-well plates depending on growth rate, and exposed to different concentrations of a test compound for 96 h in three to five replicates. All the compounds were dissolved in dimethyl sulfoxide at 5 to 20 mM, and diluted to desired concentrations in complete culture medium. Cell numbers at the end of the drug treatment were measured by the SRB assay (Gududuru et al., “Synthesis and Biological Evaluation of Novel Cytotoxic Phospholipids for Prostate Cancer,” Bioorg. Med. Chem. Lett. 14:4919-4923 (2004); Rubinstein et at., “Comparison of in vitro Anticancer-Drug-Screening Data Generated with a Tetrazolium Assay Versus a Protein Assay Against a Diverse Panel of Human Tumor Cell Lines,” J. Naatl, Cancer Inst. 82:1113-1118 (1990), each of which is hereby incorporated by reference in its entirety). Briefly, the cells were fixed with 10% of trichloroacetic acid, stained with 0.4% SRB, and the absorbances at 540 nm was measured using a plate reader (DYNEX Technologies, Chantilly, Va.).
(§2) The antiproliferative activity of all the synthesized compounds was evaluated against five human prostate cancer cell lines and in RH7777 cells (negative control) using the sulforhodamine B (SRB) assay (see description in Example 5 above).
(§3) The chosen cell lines represent different basal levels of active AKT and LPL receptor expression (discussed later). Cells were exposed to a wide range of concentrations (0 to 100 μM) of the indicated compound for 96 h. Cell numbers at the end of treatment were measured using the sulforhodamine B (SRB) assay^5.
(§4) Cells were exposed to a wide range of concentrations (0 to 100 μM) of the particular compound for 96 h in 96 well plates. Cells were fixed with 10% trichloroacetic acid, washed five times with water. The plates were air dried overnight and fixed cells were stained with SRB solution. The cellular protein-bound SRB was measured at 540 nm using a plate reader. Cell numbers at the end of the treatment were measured.
(§5) Cells were exposed to a wide range of concentrations (0 to 100 μM) of the particular compound for 96 h in 96-well plates. Cells were fixed with 10% trichloroacetic acid, washed five times with water. The plates were air dried overnight and fixed cells were stained with SRB solution. The cellular protein-bound SRB was measured at 540 nm using a plate reader. Cell numbers at the end of the treatment were calculated as a percentage of untreated control.

[2] = test system: DU-145 human prostate cancer cells; assay: SRB cytotoxicity assay, DU-145; type: cell-based; details: 96 h
Experimental: as §1, §2, §3, §4, §5

[3] = test system: PC-3 human prostate cancer cells; assay: SRB cytotoxicity assay, PC-3; type: cell-based; details: 96 h, read-out: IC50 PC-3
Experimental: as §1, §2, §3, §4, §5

[4] = test system: LNCaP human prostate cancer cells; assay: SRB cytotoxicity assay, LNCaP; type: cell-based; details: 96 h, read-out: IC50 LNCaP
Experimental: as §1, §2, §3, §4, §5

[5] = test system: PPC-1 human prostate cancer cells; assay: SRB cytotoxicity assay, PPC-1; type: cell-based; details: Homo sapiens, PPC-1, 96 h, read-out: IC50 PPC-1
Experimental: (§6) Dr. Mitchell Steiner at University of Tennessee Health Science Center, kindly provided PPG-1 and TSU-PrI cells.
as §1, §2, §3, §4, §5

[6] = test system: TSU-Pr1 human prostate cancer cells; assay: SRB cytotoxicity assay, TSU-Pr1; type: cell-based; details: 96 h, read-out: IC50 TSU-Pr1
Experimental: as §6, §1, §2, §3, §4, §5

[7] = test system: human breast cancer cell line (MCF-7); assay: SRB cytotoxicity assay, MCF-7; type: cell-based; details: Homo sapiens, MCF7; Table 8; breast cancer cell line; read-out: IC50 MCF-7
Experimental: as §1
(§7) In vitro cytotoxicity assay was performed by the same sulforhodamine B (SRB) assay (described above). The compounds shown in Table 8 below where tested for activity against the breast cancer and ovarian cancer cell lines.
as §3, §4

[8] = test system: CaOv-3 human ovarian cancer cell line; assay: SRB cytotoxicity assay, CaOv-3; type: cell-based; details: Table 8
Experimental: as §1, §7

[9] = test system: OVCAR-3 human ovarian cancer cell line; assay: SRB cytotoxicity assay, OVCAR-3; type: cell-based; details: Table 8
Experimental: as §1, §7

[10] = test system: SKOv-3 human ovarian cancer cell line; assay: SRB cytotoxicity assay, SKOv-3; type: cell-based; details: Table 8
Experimental: as §1, §7

[11] = Rattus norvegicus, RH7777, Table 4
[12] = Homo sapiens, DU-145, read-out: IC50 DU-145, Table 4
[13] = Rattus norvegicus, RH7777, Table 3
[14] = Homo sapiens, DU-145, read-out: IC50 DU-145, Table 3

SMILES	IC50 [1, 11]	IC50 [2, 12]	IC50 ([3]; Homo sapiens, Table 4)	IC50 ([4]; Homo sapiens, LNCaP, Table 4)	IC50 ([5]; Table 4)	IC50 ([6]; Homo sapiens, TSU-Pr1, Table 4)	IC50 [7]	melting point	IC50 [1, 13]	IC50 [2, 14]	IC50 ([3]; Homo sapiens, Table 3)	IC50 ([4]; Homo sapiens, LNCaP, Table 3)	IC50 ([5]; Table 3)	IC50 ([6]; Homo sapiens, TSU-Pr1, Table 3)	other results
CCCCCCCCCCCCCCCCCCNC(=O)[C@@H]1CSC(c2ccc(C)cc2)N1 (mixture of isomers) [Compound 26, (2RS, 4R)-2 p-Tolyl-thiazolidine-4-carboxylic acid octadecylamide]	> 20 µM	10.5 µM	12.8 µM	1.9 µM	1.9 µM	8 µM	10.3 µM	120 °C	–	–	–	–	–	–	–
CCCCCCCCCCCCCCCCCCNC(=O)[C@@H]1CSC(c2ccccc2)N1S(C)(=O)=O (mixture of isomers) [Compound 29, (2RS,4R)-3-Methanesulfonyl-2-phenylthiazolidine-4-carboxylic acid octadecylamide]	> 20 µM	> 20 µM	> 20 µM	> 20 µM	> 20 µM	> 20 µM	> 20 µM	55 °C	–	–	–	–	–	–	–
CCCCCCCCCCCCCCCCCCNC(=O)[C@@H]1CSC(c2ccccc2)N1C(C)=O (mixture of isomers) [Compound 28, (2RS, 4R)-3-Acetyl-2-phenylthiazolidine-4-carboxylic acid octadecylamide]	> 20 µM	~20 µM	~20 µM	16.1 µM	12.6 µM	> 20 µM	16.3 µM	90 °C	–	–	–	–	–	–	–
CCCCCCCCCCCCCCCCCCNC(=O)[C@@H]1CSC(c2cccnc2)N1 (mixture of isomers) [Compound 11, (2RS, 4R)-2-Pyridin-3-yl-thiazolidine-4-carboxylic acid octadecylamide]	–	–	–	–	–	–	9.3 µM	94 °C	10.5 µM	7.5 µM	9.2 µM	3.6 µM	2.9 µM	7.8 µM	–
CCCCCCCCCCCCCCCCCCNC(=O)[C@@H]1CSC(Cc2ccccc2)N1 (mixture of isomers) [Compound 9, (2RS, 4R)-2-Benzylthiazolidine-4-carboxylic acid octadecylamide]	–	–	–	–	–	–	18.7 µM	80 °C	> 20 µM	15.3 µM	16.4 µM	4.4 µM	4 µM	11.2 µM	–
CCCCCCCCCCCCCCCCCCNC(=O)[C@@H]1CSC(c2ccc(OC)c(OC)c2)N1 (mixture of isomers) [Compound 16-HCI, (2RS, 4R)-2-(3,4-Dimethoxy-phenyl)-thiazolidine-4-carboxylic add octadecylamide Hydrochloride]	–	–	–	–	–	–	–	–	–	–	–	–	–	–	IC50 ([1]; Table 3): 10.3 µM; IC50 ([2]; read-out: IC50 DU-145, Table 3): 4.5 µM; IC50 ([3]; Table 3): 5.2 µM; IC50 ([4]; Table 3): 0.85 µM; IC50 ([6]; Table 3): 2.4 µM; IC50 [8]: 5.5 µM; IC50 [9]: 1.2 µM; IC50 [10]: 3.6 µM
CCCCCCCCCCCCCCCCCCNC(=O)[C@@H]1CSC(c2ccc(Br)cc2)N1 (mixture of isomers) [Compound 20, (2RS, 4R)-2-(4-Bromo-phenyl)-thiazolidine-4-carboxylic acid octadecylamide]	> 20 µM	13.8 µM	17.3 µM	5.1 µM	3.7 µM	18.3 µM	16.6 µM	81 °C	–	–	–	–	–	–	–
CCCCCCCCCCCCCCCCCCNC(=O)[C@@H]1CSC(C2CCCCC2)N1 (mixture of isomers) [Compound 8, (2RS, 4R)-2-Cyclohexylthiazolidine-4-carboxylic acid octadecylamide]	–	–	–	–	–	–	~20 µM	60 °C	> 20 µM	> 20 µM	> 20 µM	12.8 µM	9.3 µM	> 20 µM	–
CCCCCCCCCCCCCCCCCCNC(=O)[C@@H]1CSC(c2ccc([N+](=O)[O-])cc2)N1 (mixture of isomers) [Compound 21, (2RS, 4R)-2-(4-Nitro-phenyl)-thiazolidine-4-carboxylic acid octadecylamide]	~20 µM	15.3 µM	~20 µM	8.4 µM	15.3 µM	15.9 µM	16.3 µM	115 °C	–	–	–	–	–	–	–
CCCCCCCCCCCCCCCCCCNC(=O)[C@@H]1CSC(c2c[nH]c3ccccc23)N1 (mixture of isomers) [Compound 10, (2RS, 4R)-2-(1H-Indol-3yl)-thiazolidine-4-carboxylic acid octadecylamide]	–	–	–	–	–	–	–	125 °C	> 20 µM	8.9 µM	11.5 µM	2.1 µM	1.3 µM	4.4 µM	–
CCCCCCCCCCCCCCCCCCNC(=O)[C@@H]1CSC(c2ccc(N(C)C)cc2)N1 (mixture of isomers) [Compound 13, (2RS, 4R)-2-(4-Dimethylamino-phenyl)-thiazolidine-4-carboxylic acid octadecylamide]	–	–	–	–	–	–	13.5 µM	75 °C	> 20 µM	5.3 µM	6 µM	1.6 µM	1.1 µM	3 µM	–
CCCCCCCCCCCCCCCCCCNC(=O)[C@@H]1CSC(c2ccc(F)c(Br)c2)N1 (mixture of isomers) [Compound 25, (2RS, 4R)-2-(3-Bromo-4-fluoro-phenyl)-thiazolidine-4-carboxylic acid octadecylamide]	~20 µM	11.3 µM	13.5 µM	3 µM	4.7 µM	14 µM	15.3 µM	100 °C	–	–	–	–	–	–	–
